Test system: KB cell
Assay: MTS assay, growth inhibition of KB cells
Assay type: cell-based
Settings: Homo sapiens, at 10 μM concentration, incubated for 72 h, read-out: Inhibition rate (%) (growth inhibition rate of MTS assay)
Procedure: MTS assay was performed in determining the growth inhibition of cancer cells. MTS ((3-(4,5-dimethylthiazol-2-yl)-5-(3-carboxymethoxyphenyl)-2-(4-sulfophenyl)-2H-tetrazolium)), in the presence of phenazine methosulfate (PMS) and reductases, produces a formazan product that has an absorbance maximum at 490-500 nm. MTS assays (and closely related MTT assay) are commonly used to measure cell viabilities or survivals.
Briefly, KB/Hela, NCI-H460, A375, Colo205, HCT-116, U937, MCF-7, MDA-MB-231, A549, H1975 cells were seeded into 96-well plate at 4000, 4000, 2000, 2000, 2000 cells/well. After 24 h for attachment, test compound was added into each well and incubated for 72 h. A total of 20 μl of MTS reaction reagent containing the MTS (Promega, Madison, Wis.) and PMS in a ratio of 20:1 was added into each well to react with dehydrogenase enzyme in survival cells. After 3 h, the absorbance at 490 nm was monitored using Emax precision microplate reader (Molecular Devices, Sunnyvale, Calif.).
The growth inhibition rate of MTS assay at KB cell of these compounds (at 10 μM concentration) are list in Table 5.

**Q.** How did the inhibition at 10 µM turn out when `Cc1ccc(CCC(=O)Nc2ncc(Cc3ccccc3)s2)o1` [Compound 1, N-(5-Benzyl-thiazol-2-yl)-3-(5-methyl-furan-2-yl)-propionamide] was run?
**A.** 95.4%

**Q.** `O=C(CCc1cccnc1)Nc1ncc(Cc2ccc(F)cc2)s1` [Compound 4, N-[5-(4-Fluoro-benzyl)-thiazol-2-yl]-3-pyridin-3-yl-propionamide] was tested. Which inhibition at 10 µM did it give?
**A.** 93.9%

**Q.** How did the inhibition at 10 µM turn out when `COc1ccc(Cc2cnc(NC(=O)CCc3ccc(C)o3)s2)cc1` [Compound 5, N-[5-(4-Methoxy-benzyl)-thiazol-2-yl]-3-(5-methyl-furan-2-yl)-propionamide] was run?
**A.** 95.8%

**Q.** Which inhibition at 10 µM does the source give for `O=C(CCc1ccc(F)cc1)Nc1ncc(Sc2ccccc2)s1` [Compound 65, 3-(4-Fluoro-phenyl)-N-(5-phenylsulfanyl-thiazol-2-yl)-propionamide] here?
**A.** 96.3%

**Q.** Which inhibition at 10 µM does the source give for `O=C(CCc1cccnc1)Nc1ncc(Sc2ccccc2)s1` [Compound 66, N-(5-Phenylsulfanyl-thiazol-2-yl)-3-pyridin-3-yl-propionamide] here?
**A.** 93.3%

**Q.** For `O=C(CCc1ccccc1)Nc1ncc(Sc2ccccc2)s1` [Compound 67, 3-Phenyl-N-(5-phenylsulfanyl-thiazol-2-yl)-propionamide], which inhibition at 10 µM is on record?
**A.** 96.6%

**Q.** Which inhibition at 10 µM does the source give for `COc1cccc(CCC(=O)Nc2ncc(Sc3ccccc3)s2)c1` [Compound 68, 3-(3-Methoxy-phenyl)-N-(5-phenylsulfanyl-thiazol-2-yl)-propionamide] here?
**A.** 94.4%

**Q.** For `Cc1ccc(CCC(=O)Nc2ncc(Sc3ccccc3)s2)o1` [Compound 72, 3-(5-Methyl-furan-2-yl)-N-(5-phenylsulfanyl-thiazol-2-yl)-propionamide], which inhibition at 10 µM is on record?
**A.** 60%

**Q.** `O=C(CCc1ccc(-c2ccccc2)cc1)Nc1ncc(Sc2ccccc2)s1` [Compound 73, 3-Biphenyl-4-yl-N-(5-phenylsulfanyl-thiazol-2-yl)-propionamide] was tested. Which inhibition at 10 µM did it give?
**A.** 97%

**Q.** With `COc1ccc(Oc2cnc(NC(=O)CCc3ccc(C)o3)s2)cc1` [Compound 74, N-[5-(4-Methoxy-phenoxy)-thiazol-2-yl]-3-(5-methyl-furan-2-yl)-propionamide] as the compound, how does the inhibition at 10 µM read?
**A.** 96.9%

**Q.** `O=C(CCc1ccccc1)Nc1ncc(SCc2ccccc2)s1` [Compound 75, N-(5-Benzylsulfanyl-thiazol-2-yl)-3-phenyl-propionamide] was tested. Which inhibition at 10 µM did it give?
**A.** 82.5%

**Q.** For `COc1cccc(N2CCN(c3cnc(NC(=O)CCc4ccccc4)s3)CC2)c1` [Compound 76, N-{5-[4-(3-Methoxy-phenyl)-piperazin-1-yl]-thiazol-2-yl}-3-phenyl-propionamide], which inhibition at 10 µM is on record?
**A.** 95%

**Q.** `Cc1ccc(CCC(=O)Nc2ccc(-n3ccc4ccccc43)cn2)o1` [Compound 78, N-(5-Indol-1-yl-pyridin-2-yl)-3-(5-methyl-furan-2-yl)-propionamide] was tested. Which inhibition at 10 µM did it give?
**A.** 93.9%

**Q.** For `Cc1ccc(CCC(=O)Nc2ccc(Sc3ccccc3)cn2)o1` [Compound 80, 3-(5-Methyl-furan-2-yl)-N-(5-phenylsulfanyl-pyridin-2-yl)-propionamide], which inhibition at 10 µM is on record?
**A.** 79.4%

**Q.** How did the inhibition at 10 µM turn out when `O=C(CCc1cccnc1)Nc1ccc(Sc2ccccc2)cn1` [Compound 82, N-(5-Phenylsulfanyl-pyridin-2-yl)-3-pyridin-3-yl-propionamide] was run?
**A.** 95.6%

**Q.** How did the inhibition at 10 µM turn out when `O=C(CCc1ccccc1)Nc1ccc(SCc2ccccc2)cn1` [Compound 86, N-(5-Benzylsulfanyl-pyridin-2-yl)-3-phenyl-propionamide] was run?
**A.** 92.8%

**Q.** For `COc1ccc(Cc2nnc(NC(=O)CCc3ccc(C)o3)s2)cc1` [Compound 88, N-[5-(4-Methoxy-benzyl)-[1,3,4]thiadiazol-2-yl]-3-(5-methyl-furan-2-yl)-propionamide], which inhibition at 10 µM is on record?
**A.** 93.5%

**Q.** How did the inhibition at 10 µM turn out when `COc1ccc(Cc2nnc(NC(=O)CCc3ccccc3)s2)cc1` [Compound 89, N-[5-(4-Methoxy-benzyl)-[1,3,4]thiadiazol-2-yl]-3-phenyl-propionamide] was run?
**A.** 96.9%

**Q.** `Cn1c(-c2ccccc2)cnc1NC(=O)CCc1ccccc1` [Compound 90, N-(1-Methyl-5-phenyl-1H-imidazol-2-yl)-3-phenyl-propionamide] was tested. Which inhibition at 10 µM did it give?
**A.** 96.6%

**Q.** How did the inhibition at 10 µM turn out when `Cc1ccc(CCC(=O)Nc2ncc(-c3ccccc3)n2C)o1` [Compound 91, 3-(5-Methyl-furan-2-yl)-N-(1-methyl-5-phenyl-1H-imidazol-2-yl)-propionamide] was run?
**A.** 96%

**Q.** `Cc1ccc(CCC(=O)Nc2ncc(/C=C/c3ccccc3)cn2)o1` [Compound 95, 3-(5-Methyl-furan-2-yl)-N-(5-styryl-pyrimidin-2-yl)-propionamide] was tested. Which inhibition at 10 µM did it give?
**A.** 93.6%

**Q.** Which inhibition at 10 µM does the source give for `O=C(/C=C/c1ccccc1)Nc1ncc(/C=C/c2ccccc2)cn1` [Compound 96, 3-Phenyl-N-(5-styryl-pyrimidin-2-yl)-acrylamide] here?
**A.** 96.8%

**Q.** How did the inhibition at 10 µM turn out when `O=C(CCc1ccccc1)Nc1ncc(/C=C/c2ccccc2)cn1` [Compound 97, 3-Phenyl-N-(5-styryl-pyrimidin-2-yl)-propionamide] was run?
**A.** 52.7%

**Q.** For `COc1ccc(-c2cnc(NC(=O)CCc3ccc(C)o3)nc2)c(OC)c1` [Compound 107, N-[5-(2,4-Dimethoxy-phenyl)-pyrimidin-2-yl]-3-(5-methyl-furan-2-yl)-propionamide], which inhibition at 10 µM is on record?
**A.** 97%

**Q.** With `O=C(Nc1ncc(-c2ccccc2)cn1)OCc1ccccc1` [Compound 108, (5-Phenyl-pyrimidin-2-yl)-carbamic acid benzyl ester] as the compound, how does the inhibition at 10 µM read?
**A.** 96.9%

**Q.** How did the inhibition at 10 µM turn out when `O=C(Nc1ncc(-c2ccc(F)cc2)cn1)OCc1ccccc1` [Compound 109, [5-(4-Fluoro-phenyl)-pyrimidin-2-yl]-carbamic acid benzyl ester] was run?
**A.** 95.9%

**Q.** `O=C(CCc1ccccc1)Nc1ccc(-c2ccccc2)cn1` [Compound 110, 3-Phenyl-N-(5-phenyl-pyridin-2-yl)-propionamide] was tested. Which inhibition at 10 µM did it give?
**A.** 97%

**Q.** How did the inhibition at 10 µM turn out when `O=C(CCc1ccccc1)Nc1ccc(-c2ccc(F)cc2)cn1` [Compound 113, N-[5-(4-Fluoro-phenyl)-pyridin-2-yl]-3-phenyl-propionamide] was run?
**A.** 97.1%

**Q.** Which inhibition at 10 µM does the source give for `Cc1ccc(CCC(=O)Nc2ccc(-c3ccccc3)cn2)s1` [Compound 114, 3-(5-Methyl-thiophen-2-yl)-N-(5-phenyl-pyridin-2-yl)-propionamide] here?
**A.** 93.4%

**Q.** For `COc1cccc(-c2ccc(NC(=O)CCc3ccc(C)o3)nc2)c1OC` [Compound 115, N-[5-(2,3-Dimethoxy-phenyl)-pyridin-2-yl]-3-(5-methyl-furan-2-yl)-propionamide], which inhibition at 10 µM is on record?
**A.** 95.8%

**Q.** For `COc1cccc(-c2ccc(NC(=O)CCc3ccccc3)nc2)c1OC` [Compound 116, N-[5-(2,3-Dimethoxy-phenyl)-pyridin-2-yl]-3-phenyl-propionamide], which inhibition at 10 µM is on record?
**A.** 94.1%

**Q.** `Cc1cc(-c2ccccc2)cnc1NC(=O)CCc1ccccc1` [Compound 117, N-(3-Methyl-5-phenyl-pyridin-2-yl)-3-phenyl-propionamide] was tested. Which inhibition at 10 µM did it give?
**A.** 94.6%

**Q.** For `Cc1cc(-c2ccc(N(C)C)cc2)cnc1NC(=O)C(C)Cc1ccccc1` (stereo not shown) [Compound 121, N-[5-(4-Dimethylamino-phenyl)-3-methyl-pyridin-2-yl]-2-methyl-3-phenyl-propionamide], which inhibition at 10 µM is on record?
**A.** 93.5%

**Q.** How did the inhibition at 10 µM turn out when `Cc1ccc(CCC(=O)Nc2cnc(-c3ccccc3)cn2)o1` [Compound 122, 3-(5-Methyl-furan-2-yl)-N-(5-phenyl-pyrazin-2-yl)-propionamide] was run?
**A.** 80.8%

Test system: biotinylated tubulin
Assay: Colchicine competitive-binding assay
Settings: at 10 μM concentration; 3H-colchicine; left column pair of Table 7
Procedure: The colchicine competitive-binding assay was done by using the Colchicine Site competitive Assay Kit (Cytoskeleton, Inc.), streptavidin-coated yttrium SPA beads(GE Healthcare, Inc.), and ^3H-colchicine(PerkinElmer, Inc.). Briefly, the binding mixture includes 1 μL^3H-labeled ligand (specific activity […]), and 1 μg biotinylated tubulin and 88 μg SPA beads in 200 μL assay buffer. The test compound and ^3H-labeled ligand were added before tubulin. After incubation at 37° C. for 2 hours, the SPA beads were allowed to settle down for 24 hours at room temperature, and scintillation counting was done on the TopCount Microplate Scintillation Counter.

**Q.** For `Cc1ccc(CCC(=O)Nc2ncc(Cc3ccccc3)s2)o1` [Compound 1, N-(5-Benzyl-thiazol-2-yl)-3-(5-methyl-furan-2-yl)-propionamide], which “binding rate (%) (colchicine competitive-binding)” value (from here on “binding rate (%)”) is on record?
**A.** 50.2%

**Q.** `O=C(CCc1cccnc1)Nc1ncc(Cc2ccc(F)cc2)s1` [Compound 4, N-[5-(4-Fluoro-benzyl)-thiazol-2-yl]-3-pyridin-3-yl-propionamide] was tested. Which “binding rate (%)” value did it give?
**A.** 58.6%

**Q.** Which “binding rate (%)” value does the source give for `COc1ccc(Cc2cnc(NC(=O)CCc3ccc(C)o3)s2)cc1` [Compound 5, N-[5-(4-Methoxy-benzyl)-thiazol-2-yl]-3-(5-methyl-furan-2-yl)-propionamide] here?
**A.** 63.8%
